Assay [1] has as its system C57BL/6 mice. Briefly: Renal IRI in WT mice: kidney apoptosis (Caspase-3, Bcl-2 real time PCR, TUNEL). Format: in vivo. Particulars: for TUNEL reactivity in kidney: 26 minutes ischemia, 24 hours reperfusion, FIG. 3e-f; for kidney Caspase-3 expression: hepcidin before IRI, vs IRI p<0.005, vs sham p<0.03, FIG. 3a; for kidney Bcl2 expression: hepcidin-IRI vs untreated IRI, p<0.0008, FIG. 3b. The procedure: (§1) All experiments were performed in accordance with the National Institutes of Health and Institutional Animal Care and Use Guidelines. The Animal Care and Use Committee of the University of Virginia approved all procedures and protocols. C57BL/6 mice from the Jackson Laboratory and hepcidin knockout mice (HAMP−/−), a kind gift from Dr Cindy Roy (John Hopkins University) were used in this study. All experiments were performed on 8-10 weeks old male mice. Kidney ischemia-reperfusion surgery was performed as previously reported (44). The core temperature of the mice was maintained between 34° C. and 36° C. using a heating pad. After anesthetizing the mice (ketamine, 12 mg/ml; atropine, 0.48 mg/ml; xylazine, 24 mg/ml; […] mixture administered per 20 g body weight), bilateral flank incisions were made, both renal pedicles were exposed, and cross-clamped for 26 minutes (severe I/R injury) or 24 minutes (mild I/R injury). After the determined ischemia, clamps were removed, and kidneys were allowed to reperfuse for 24 hours. Ambient postoperative air temperature was maintained between 30° C. and 32° C. until mice had fully recovered. Sham-operated animals underwent bilateral flank incisions without clamping of renal pedicles. Twenty-four hours later, mice were euthanized, and tissues were harvested.
Animals were divided into three groups, injected intraperitoneally with water and underwent IRI (IRI), injected intraperitoneally with 50-100 μg hepcidin at different time points prior to IRI (Hepcidin-IRI) or were sham operated (Sham). The experimental design is depicted in FIG. 2a.
(§2) Apoptotic cells in the kidney were detected by TUNEL assay following the manufacturer's protocol (Roche Diagnostics, Mannheim, Germany). Briefly, PLP-fixed kidney sections were immersed in 3% hydrogen peroxide-methanol (10 minutes) and permeabilized with cold 0.1% Triton-X100 and 0.1% […] (2 minutes). DNA fragments in apoptotic cells were then labeled and identified by terminal transferase dUTP conjugated to fluorescein (Roche Diagnostics) for 60 minutes at room temperature in dark. The apoptotic cells were imaged using a Zeiss Axiovert 200 microscope with Apo Tome (Zeiss).
(§3) For RNA isolation, frozen tissues were re-suspended in RLT buffer (Qiagen Inc, Valencia, Calif.) and homogenized using TissueLyser system (Qiagen Inc, Valencia, Calif.). Total RNA from tissue homogenate was purified using RNAeasy mini kit (Qiagen Inc, Valencia, Calif.) following manufacturers instructions. 1 μg of RNA was used to synthesize cDNA using the iScript cDNA synthesis kit (Bio-Rad). The cDNA template was mixed with iTAQ SYBR green universal super mix (Bio-Rad) and quantitative PCR was carried out on CFX Connect system (Bio-Rad). Predesigned primers for Caspase-3 and Bcl-2 were purchased from Bio-rad. Glyceraldehyde-3-phosphate dehydrogenase (GAPDH) was amplified in parallel and used as the reference gene in quantification. Data is expressed as the relative gene expression and was calculated using the 2 (−ρρC(T)) method.
(In general: Real-time PCR tracks product formation cycle by cycle.)

The subject of assay [2] is hepcidin knockout mice (HAMP−/−). In words: Mild renal IRI in HAMP-/- mice: kidney H-Ferritin and apoptosis (Caspase-3, Bcl-2, TUNEL). Type of assay: in vivo. Particulars: for kidney Caspase-3 expression: HAMP-/- IRI Vs HAMP-/- Hepcidin-IRI, p<0.007, FIG. 7c; for TUNEL-positive cells in the kidney: hepcidin treated HAMP-/- IRI vs HAMP-/- IRI, FIG. 7g; for kidney H-Ferritin levels: hepcidin treated HAMP-/- IRI vs untreated p<0.05, lower than sham p<0.005, FIG. 7a-b. The procedure:
as §1, §2
Snap frozen tissue sections were homogenized in Tris-Triton tissue lysis buffer containing complete protease inhibitor cocktail using a Dounce Homogenizer. Membrane fractions were isolated from the whole kidney lysate using membrane isolation kit (Thermo Pierce) to determine ferroportin expression. H-Ferritin was measured in the whole kidney and spleen lysates. Protein content in the homogenate was estimated using the BCA protein estimation kit. Twenty to thirty microgram of protein per sample were loaded on a 10% NuPage Bis-Tris gel under reducing conditions. The resolved proteins were transferred onto a Nitrocellulose membrane (Licor Bioscience) and probed with goat anti-mouse H-Ferritin (Santa Cruz) and rabbit anti-mouse ferroportin (Novus Biologics) antibodies. The primary antibodies were detected with Donkey anti-goat Alexa 800 and goat anti-rabbit Alexa 800 antibodies (LiCor Bioscience). Mouse monoclonal GAPDH and β-Actin (Abcam) were used as the loading controls and detected using Donkey anti Mouse Alexa 680 antibody (LiCor Bioscience). Quantitation of data was performed using densitometry software (Licor Bioscience).
as §3
WT mice injected with hepcidin had higher levels of H-Ferritin and less apoptotic kidney injury. […]

For assay [3], the system named is C57BL/6 mice. In words: Renal IRI in WT mice: splenic ferroportin (immunofluorescence) and splenic H-Ferritin (Western blot). Type of assay: in vivo. Particulars: for splenic H-Ferritin: WT hepcidin IRI vs IRI and vs Sham, p<0.05, FIG. 9b. The procedure: as §1, with “harvested. […]” for “harvested.”
Snap frozen tissue sections were homogenized in Tris-Triton tissue lysis buffer containing complete protease inhibitor cocktail using a Dounce Homogenizer. […] H-Ferritin was measured in the whole kidney and spleen lysates. […] The primary antibodies were detected with Donkey anti-goat Alexa 800 and goat anti-rabbit Alexa 800 antibodies (LiCor Bioscience). Mouse monoclonal GAPDH and β-Actin (Abcam) were used as the loading controls and detected using Donkey anti Mouse Alexa 680 antibody (LiCor Bioscience). Quantitation of data was performed using densitometry software (Licor Bioscience).

In the next assay the test system is splenocytes from WT mice. In words: Iron stimulation of splenocytes, IL-6 secretion by ELISA. Type of assay: cell-based. Particulars: 1 μg/mL hepcidin for 4 hours, vs untreated splenocytes; FIG. 10c. The procedure: Splenocytes were harvested from 10-week-old B6 male mice. After excising the spleen, red blood cells were lysed and the remaining splenocytes were seeded at 1×10^6 cells/mL in 24-well tissue culture plates and cultured under 5% CO2 at 37° C. for 24 hours. The culture medium consisted of RPMI 1640 medium supplemented with 10% fetal calf serum (FCS), 100 U/mL penicillin, 100 μg/mL streptomycin, 1% non-essential amino acids (Gibco/Life Technologies, Foster, Calif., USA), 2 mM L-glutamine (Sigma), and 50/μM 2-mercaptoethanol. After resting for 24 hours, the cells were treated with 10 μM […] (FAC), 1 μg/mL hepcidin or saline for 4 hours. The cell culture supernatants were harvested and quantified for the levels of IL-6 by ELISA (eBioscience).
(In general: In an ELISA, binding on a coated surface is turned into a signal by an enzyme label.)

“Also recorded” adds a separate entry of the source.

Results on one substance are retold here after patent US11020457B2, “Compositions and methods for protecting the kidney from ischemia reperfusion injury” (University of Virginia Patent Foundation, priority 2013, dated 2021).

Regarding “Mouse hepcidin 25 (DTNFPICIFCCKCCNNSQCGICCKT; listed as Mus musculus)”, in the assay with C57BL/6 mice [1], the “TUNEL reactivity in kidney” value is “reduced by Hepcidin pretreatment”, the “kidney Caspase-3 expression” value is “significantly reduced IRI-induced Caspase-3 expression; also recorded: lower transcriptional activation of pro apoptotic Caspase3” and the “kidney Bcl2 expression” value is “better preservation of anti apoptotic Bcl2”. Besides, in the assay on C57BL/6 mice [1] (listed as hepcidin), the “TUNEL reactivity in kidney” value is listed as “remarkably fewer TUNEL-positive tubules”, the “kidney Caspase-3 expression” value is “even lower than the sham mice” and the “kidney Bcl2 expression” value was “significantly higher expression of Bcl2 compared to untreated IRI mice”. In addition, in assay [2] (HAMP-/- Hepcidin-IRI Vs HAMP-/- IRI, p<0.005, FIG. 7d), the “kidney Bcl-2 expression” value is “prevented the decrease in Bcl-2 expression; also recorded: higher level of anti apoptotic Bcl2”. For the same substance, in assay [2], the “kidney Caspase-3 expression” value was “lower transcriptional activation of pro apoptotic Caspase3”, the “TUNEL-positive cells in the kidney” value is given as “markedly reduced” and the “kidney H-Ferritin levels” value was “significantly higher H ferritin levels”. In assay [2] (listed as hepcidin), the “kidney Caspase-3 expression” value is “almost completely prevented”, the “TUNEL-positive cells in the kidney” value was “significantly fewer TUNEL-positive cells” and the “kidney H-Ferritin levels” value is “significantly higher than in untreated”. Further, the “splenic H-Ferritin” value in the assay on C57BL/6 mice [3] was “increased splenic H-Ferritin levels”. Moreover, the “splenic H-Ferritin” value in the assay on C57BL/6 mice [3] (listed as hepcidin) is “significantly higher H-Ferritin compared to both untreated IRI mice and sham controls”. The splenic ferroportin expression result with C57BL/6 mice [3] (hepcidin treatment, renal IRI, FIG. 9a bottom panel) is “dramatic decrease in surface expression of ferroportin; also recorded: degradation of ferroportin”. In the assay on splenocytes from WT mice, the “IL-6 secretion into supernatants” value is “no significant difference in IL-6 levels”.
